Measurements as given in US20260356856A1, “KRAS G12S AND G12C INHIBITORS” (MIRATI THERAPEUTICS, INC., priority 2023, published 2026).

How the values were obtained:
[1] = biological target: T1, KRas-mediated phosphorylation of ERK in A549 cells (Homo sapiens, UniProt P01116, G12S); assay: Inhibition of KRas-mediated phosphorylation of ERK (HTRF), A549 cells; type: cell-based; conditions: HTRF pERK, 3 h incubation
T1 construct: pERK HTRF read-out

KRas WT = biological target: T2, KRas WT (Homo sapiens, UniProt P01116); assay: KRas binding assay, TR-FRET displacement of Cy5 labelled tracer; conditions: 60-minute incubation at room temperature, 1% DMSO, pH 7.5
T2 construct: Biotinylated KRas (corresponding to amino acids 1-169, produced at Accelegan Inc.); biotin (biotinylated); purchased Accelegan Inc
How it was run: (§1)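 Biotinylated KRas (aa 1-169) incubated with Cy5-labelled tracer, terbium streptavidin and compound (1% DMSO final) in 50 mM HEPES pH 7.5, 5 mM MgCl2, 0.005% Tween-20, 1 mM DTT. Tracer displacement read by TR-FRET after 60 min at room temperature; POC values fitted to 4-parameter IC50 equation.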

KRas G12C = biological target: T3, KRas G12C (Homo sapiens, UniProt P01116, G12C); assay: as above; conditions: 60-minute incubation at room temperature, 1% DMSO, pH 7.5
T3 construct: Biotinylated KRas (corresponding to amino acids 1-169, produced at Accelegan Inc.); biotin (biotinylated); purchased Accelegan Inc
How it was run: as §1

KRas G12S = biological target: T4, KRas G12S (Homo sapiens, UniProt P01116, G12S); assay: as above; conditions: 60-minute incubation at room temperature, 1% DMSO, pH 7.5
T4 construct: Biotinylated KRas (corresponding to amino acids 1-169, produced at Accelegan Inc.); biotin (biotinylated); purchased Accelegan Inc
How it was run: as §1

[2] = biological target: T5, KRas-mediated phosphorylation of ERK in MKN1 cells (Homo sapiens, UniProt P01116); assay: Inhibition of KRas-mediated phosphorylation of ERK (HTRF), MKN1 cells; type: cell-based; conditions: MKN1 cells (KRas WT); HTRF pERK; 3 h incubation
T5 construct: pERK HTRF read-out
Procedure: Inhibition of KRas Phosphorylation of ERK (HTRF) by Exemplary Compounds of Formula (Ia) or (Ib)
Cisbio HTRF Advanced pERK Assay Catalog #64AERPEH • Cells: MKN1, PSN1 • Procedure: • 1. Day 1: Seed 6,000 cells/well −25 μl/well in 384-well white solid bottom plate; RPM1_10% FBS. Incubate overnight at 37 °C/5% CO2. • 2.

T3 sequence (P01116 1-169 isoform P01116-2 G12C): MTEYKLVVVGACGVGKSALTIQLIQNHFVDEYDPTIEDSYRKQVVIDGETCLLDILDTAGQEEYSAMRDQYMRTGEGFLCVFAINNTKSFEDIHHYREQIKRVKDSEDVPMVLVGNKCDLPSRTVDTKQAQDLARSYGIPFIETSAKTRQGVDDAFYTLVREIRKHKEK
T5 sequence (P01116 1-188 isoform P01116-2): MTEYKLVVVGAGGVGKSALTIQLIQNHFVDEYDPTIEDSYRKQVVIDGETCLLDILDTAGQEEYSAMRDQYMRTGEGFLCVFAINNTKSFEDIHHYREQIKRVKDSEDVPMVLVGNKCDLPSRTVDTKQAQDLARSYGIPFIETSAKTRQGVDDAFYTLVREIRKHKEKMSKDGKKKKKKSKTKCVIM
T4 sequence (P01116 1-169 isoform P01116-2 G12S): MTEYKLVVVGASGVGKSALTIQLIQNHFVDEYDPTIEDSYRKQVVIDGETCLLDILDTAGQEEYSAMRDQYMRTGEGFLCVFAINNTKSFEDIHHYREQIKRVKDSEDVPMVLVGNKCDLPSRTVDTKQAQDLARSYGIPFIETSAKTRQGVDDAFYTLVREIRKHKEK
T1 sequence (P01116 1-188 isoform P01116-2 G12S): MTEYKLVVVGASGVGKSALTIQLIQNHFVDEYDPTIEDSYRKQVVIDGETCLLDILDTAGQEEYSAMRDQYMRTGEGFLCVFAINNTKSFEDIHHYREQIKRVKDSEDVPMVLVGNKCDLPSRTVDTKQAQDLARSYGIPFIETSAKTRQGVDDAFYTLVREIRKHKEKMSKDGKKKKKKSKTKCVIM
T2 sequence (P01116 1-169 isoform P01116-2): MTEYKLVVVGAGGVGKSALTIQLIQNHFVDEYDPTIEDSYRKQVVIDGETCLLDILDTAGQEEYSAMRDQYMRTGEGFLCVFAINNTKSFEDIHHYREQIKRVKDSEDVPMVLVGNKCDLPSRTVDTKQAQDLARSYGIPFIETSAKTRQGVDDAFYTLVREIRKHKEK

SMILES	IC50 [1]	IC50 (KRas WT)	IC50 (KRas G12C)	IC50 (KRas G12S)	IC50 [2]
N#Cc1c(N)sc2c(F)ccc(-c3c(Cl)cc4c(N5CCN(S(=O)(=O)n6cnnc6)CC5)nc(OC[C@@]56CCCN5C[C@H](F)C6)nc4c3F)c12 [Example 187, 4-(4-(4-((4H-1,2,4-triazol-4-yl)sulfonyl)piperazin-1-yl)-6-chloro-8-fluoro-2-(((2R,7aS)-2-fluorotetrahydro-1H-pyrrolizin-7a(5H)-yl)methoxy)quinazolin-7-yl)-2-amino-7-fluorobenzo[b]thiophene-3-carbonitrile]	1360 nM	11 nM	40 nM	33 nM	127 nM
CCc1c(F)ccc2cc(O)cc(-c3ncc4c(N5C[C@H]6CC(C(=O)n7ccc(C)n7)C[C@@H]6C5)nc(OC[C@@]56CCCN5C[C@H](F)C6)nc4c3F)c12 [Example 115, ((3aS,6aS)-2-(7-(8-ethyl-7-fluoro-3-hydroxynaphthalen-1-yl)-8-fluoro-2-(((2R,7aS)-2-fluorotetrahydro-1H-pyrrolizin-7a(5H)-yl)methoxy)pyrido[4,3-d]pyrimidin-4-yl)octahydrocyclopenta[c]pyrrol-5-yl)(3-methyl-1H-pyrazol-1-yl)methanone]	> 10000 nM	260 nM	4120 nM	1800 nM	2670 nM
CCc1c(F)ccc2cc(O)cc(-c3ncc4c(N5CCC(COC)(C(=O)n6ccc(C)n6)CC5)nc(OC[C@@]56CCCN5C[C@H](F)C6)nc4c3F)c12 [Example 89, (1-(7-(8-ethyl-7-fluoro-3-hydroxynaphthalen-1-yl)-8-fluoro-2-(((2R,7aS)-2-fluorotetrahydro-1H-pyrrolizin-7a(5H)-yl)methoxy)pyrido[4,3-d]pyrimidin-4-yl)-4-(methoxymethyl)piperidin-4-yl)(3-methyl-1H-pyrazol-1-yl)methanone]	> 10000 nM	8490 nM	2470 nM	6630 nM	> 10000 nM
Cc1ccn(C(=O)C2CCCN(c3nc(OC[C@@]45CCCN4C[C@H](F)C5)nc4c(F)c(-c5ccc(F)c6sc(N)c(C#N)c56)c(Cl)cc34)CCC2)n1 [Example 134, 2-amino-4-(6-chloro-8-fluoro-2-(((2R,7aS)-2-fluorotetrahydro-1H-pyrrolizin-7a(5H)-yl)methoxy)-4-(5-(3-methyl-1H-pyrazole-1-carbonyl)azocan-1-yl)quinazolin-7-yl)-7-fluorobenzo[b]thiophene-3-carbonitrile]	1840 nM	21 nM	59 nM	46 nM	187 nM
CCc1c(F)ccc2cc(O)cc(-c3ncc4c(N5CCC(CC(=O)n6ccc(C)n6)C5)nc(OC[C@@]56CCCN5C[C@H](F)C6)nc4c3F)c12 (stereo partly drawn) [Example 113, 2-(1-(7-(8-ethyl-7-fluoro-3-hydroxynaphthalen-1-yl)-8-fluoro-2-(((2R,7aS)-2-fluorotetrahydro-1H-pyrrolizin-7a(5H)-yl)methoxy)pyrido[4,3-d]pyrimidin-4-yl)pyrrolidin-3-yl)-1-(3-methyl-1H-pyrazol-1-yl) ethan-1-one]	110 nM	78 nM	137 nM	31 nM	3150 nM
CCc1c(F)ccc2cc(O)cc(-c3ncc4c(N5C[C@@H]6[C@H](C5)[C@H]6C(=O)n5ccc(C)n5)nc(OC[C@@]56CCCN5C[C@H](F)C6)nc4c3F)c12 [Example 118, ((1R,5S,6S)-3-(7-(8-ethyl-7-fluoro-3-hydroxynaphthalen-1-yl)-8-fluoro-2-(((2R,7aS)-2-fluorotetrahydro-1H-pyrrolizin-7a(5H)-yl)methoxy)pyrido[4,3-d]pyrimidin-4-yl)-3-azabicyclo[3.1.0]hexan-6-yl)(3-methyl-1H-pyrazol-1-yl)methanone]	7840 nM	873 nM	591 nM	437 nM	5750 nM
C=CC1(C(=O)n2ccc(C)n2)CCN(c2nc(OC[C@@]34CCCN3C[C@H](F)C4)nc3c(F)c(-c4cc(O)cc5ccc(F)c(CC)c45)ncc23)CC1 [Example 102, (1-(7-(8-ethyl-7-fluoro-3-hydroxynaphthalen-1-yl)-8-fluoro-2-(((2R,7aS)-2-fluorotetrahydro-1H-pyrrolizin-7a(5H)-yl)methoxy)pyrido[4,3-d]pyrimidin-4-yl)-4-vinylpiperidin-4-yl)(3-methyl-1H-pyrazol-1-yl)methanone]	1930 nM	5920 nM	252 nM	2140 nM	> 10000 nM
CCc1c(F)ccc2cc(O)cc(-c3ncc4c(N5C[C@H]6C[C@@H](C5)[C@H](C(=O)n5ccc(C)n5)C6)nc(OC[C@@]56CCCN5C[C@H](F)C6)nc4c3F)c12 [Example 100, ((1S,5R,6R)-3-(7-(8-ethyl-7-fluoro-3-hydroxynaphthalen-1-yl)-8-fluoro-2-(((2R,7aS)-2-fluorotetrahydro-1H-pyrrolizin-7a(5H)-yl)methoxy)pyrido[4,3-d]pyrimidin-4-yl)-3-azabicyclo[3.2.1]octan-6-yl)(3-methyl-1H-pyrazol-1-yl)methanone]	> 10000 nM	7690 nM	4840 nM	4720 nM	> 10000 nM
CCc1c(F)ccc2cc(O)cc(-c3ncc4c(N5C[C@H]6CC(C(=O)n7ccc(C)n7)C[C@H]6C5)nc(OC[C@@]56CCCN5C[C@H](F)C6)nc4c3F)c12 (stereo partly drawn) [Example 116, ((3aR,6aS)-2-(7-(8-ethyl-7-fluoro-3-hydroxynaphthalen-1-yl)-8-fluoro-2-(((2R,7aS)-2-fluorotetrahydro-1H-pyrrolizin-7a(5H)-yl)methoxy)pyrido[4,3-d]pyrimidin-4-yl)octahydrocyclopenta[c]pyrrol-5-yl)(3-methyl-1H-pyrazol-1-yl)methanone]	35 nM	3480 nM	111 nM	11 nM	4440 nM
CCc1c(F)ccc2cc(O)cc(-c3ncc4c(N5CCC6CC6(C(=O)n6ccc(C)n6)CC5)nc(OC[C@@]56CCCN5C[C@H](F)C6)nc4c3F)c12 (stereo partly drawn) [Example 91, (4-(7-(8-ethyl-7-fluoro-3-hydroxynaphthalen-1-yl)-8-fluoro-2-(((2R,7aS)-2-fluorotetrahydro-1H-pyrrolizin-7a(5H)-yl)methoxy)pyrido[4,3-d]pyrimidin-4-yl)-4-azabicyclo[5.1.0]octan-1-yl)(3-methyl-1H-pyrazol-1-yl)methanone]	210 nM	317 nM	141 nM	62 nM	853 nM
CCc1c(F)ccc2cc(O)cc(-c3ncc4c(N5CC[C@H]6[C@@H](C5)[C@H]6C(=O)n5ccc(C)n5)nc(OC[C@@]56CCCN5C[C@H](F)C6)nc4c3F)c12 (stereo in doubt) [Example 99, (cis-3-(7-(8-ethyl-7-fluoro-3-hydroxynaphthalen-1-yl)-8-fluoro-2-(((2R,7aS)-2-fluorotetrahydro-1H-pyrrolizin-7a(5H)-yl)methoxy)pyrido[4,3-d]pyrimidin-4-yl)-3-azabicyclo[4.1.0]heptan-7-yl)(3-methyl-1H-pyrazol-1-yl)methanone]	54 nM	–	58 nM	26 nM	1050 nM
